Results reported in BigSolDB 2.1.

CC(=O)N[C@@H](C)C(=O)O
solubility (mole fraction)
Details	283.15 K	288.15 K	293.15 K	298.15 K	303.15 K	308.15 K	313.15 K	318.15 K	323.15 K
in 2-butanone	0.0111	0.0132	0.0161	0.0186	0.0215	0.026	0.03	0.0358	0.0437
in acetone	0.0224	0.028	0.0329	0.0372	0.0446	0.0524	0.0638	0.0819	0.103
in acetonitrile	0.00594	0.00727	0.00871	0.0114	0.0136	0.0177	0.0226	0.0312	0.0385
in dimethyl carbonate	0.00223	0.00261	0.00319	0.00376	0.00449	0.00543	0.00668	0.00841	0.0103
in ethanol	0.111	0.127	0.138	0.156	0.174	0.198	0.217	0.235	0.267
in ethyl acetate	0.00433	0.00521	0.0062	0.00718	0.00806	0.00947	0.0112	0.0131	0.0156
in isobutanol	0.0571	0.063	0.0718	0.0798	0.0916	0.107	0.12	0.132	0.145
in isopentanol	0.0527	0.0563	0.0636	0.0713	0.0823	0.0949	0.108	0.125	0.139
in isopropanol	0.0781	0.0901	0.1	0.113	0.13	0.148	0.162	0.175	0.195
in methyl acetate	0.00578	0.00705	0.00861	0.00997	0.0114	0.0135	0.0162	0.0196	0.0242
in n-butanol	0.0633	0.0707	0.0784	0.0869	0.0982	0.114	0.127	0.143	0.157
in n-butyl acetate	0.00354	0.00382	0.00417	0.00455	0.00504	0.00573	0.00654	0.00771	0.00892
in n-pentanol	0.0516	0.0546	0.0621	0.0695	0.0805	0.0915	0.106	0.12	0.137
in n-propanol	0.0858	0.0937	0.104	0.118	0.133	0.153	0.168	0.186	0.213
in n-propyl acetate	0.003	0.00352	0.00421	0.00495	0.00558	0.00642	0.00755	0.00913	0.0109
in sec-butanol	0.068	0.0759	0.0892	0.101	0.113	0.129	0.144	0.161	0.175
